Here are results for 37 molecules from ChEMBL document CHEMBL1149136, “Design and syntheses of 1,6-naphthalene derivatives as selective HCMV protease inhibitors” (J Med Chem, 2004).

Bounds are passed on as bounds.

Assay [1] addresses T1, Capsid scaffolding protein (Human cytomegalovirus (strain AD169) (HHV-5) (Human herpesvirus 5), UniProt P16753).
T1 sequence (P16753 whole entry): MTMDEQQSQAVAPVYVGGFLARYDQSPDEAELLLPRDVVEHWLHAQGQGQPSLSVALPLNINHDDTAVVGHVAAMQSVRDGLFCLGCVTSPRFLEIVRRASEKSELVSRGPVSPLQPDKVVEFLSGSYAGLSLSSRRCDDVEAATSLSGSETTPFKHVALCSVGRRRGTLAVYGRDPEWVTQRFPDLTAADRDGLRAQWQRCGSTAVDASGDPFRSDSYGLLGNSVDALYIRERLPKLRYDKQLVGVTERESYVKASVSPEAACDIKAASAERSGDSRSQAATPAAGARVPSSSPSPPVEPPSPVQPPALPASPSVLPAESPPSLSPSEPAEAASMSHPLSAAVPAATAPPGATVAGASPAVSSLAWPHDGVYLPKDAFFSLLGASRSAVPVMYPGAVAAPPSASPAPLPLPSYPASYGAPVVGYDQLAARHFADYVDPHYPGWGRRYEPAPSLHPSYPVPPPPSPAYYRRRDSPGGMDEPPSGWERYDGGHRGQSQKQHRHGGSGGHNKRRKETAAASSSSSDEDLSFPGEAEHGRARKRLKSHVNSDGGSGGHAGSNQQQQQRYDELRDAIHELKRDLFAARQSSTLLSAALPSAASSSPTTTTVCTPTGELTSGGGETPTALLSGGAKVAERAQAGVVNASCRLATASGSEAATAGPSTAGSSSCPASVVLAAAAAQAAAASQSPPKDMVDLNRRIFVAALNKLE
Briefly: Inhibitory concentration against HCMV protease. It counts as functional, Human herpesvirus 5 strain AD169.

Assay [2] in a line: Compound was tested for inhibition of chymotrypsinogen.
In assay [3] the target is Serine protease 1 (Homo sapiens) (UniProt P07477). Briefly: Compound was tested for inhibition of trypsin.
Chain of Serine protease 1 (Homo sapiens) (P07477 whole entry): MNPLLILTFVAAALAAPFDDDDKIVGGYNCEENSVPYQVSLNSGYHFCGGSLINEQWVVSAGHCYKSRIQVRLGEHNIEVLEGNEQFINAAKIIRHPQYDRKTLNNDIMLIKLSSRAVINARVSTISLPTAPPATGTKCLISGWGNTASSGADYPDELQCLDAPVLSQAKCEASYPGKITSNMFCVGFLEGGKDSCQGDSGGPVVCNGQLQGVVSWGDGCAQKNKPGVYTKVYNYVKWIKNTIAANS
Assay [4] in a line: Inhibitory concentration against elastase. It counts as functional.

With `CC(=O)Nc1ccc2c(/C=C/c3ccc4cc(Cl)ccc4n3)cccc2c1`, the IC50 (commonly the concentration needed to halve the response being measured) in assay [1] was found to be 43 µM. Consider `O=C(O)c1ccc(CNc2ccc3c(COc4ccc(Br)cc4)cccc3c2)cc1`, for which the Activity in assay [2] is > 50 µM; in assay [3], > 80 µM. In assay [1], this molecule came in with an IC50 of 2.8 µM.

In turn, `O=C(O)c1ccc(CNc2ccc3c(/C=C/c4ccc5ccc(Cl)cc5n4)cccc3c2)cc1` displayed an IC50 in assay [1] of 2.7 µM. This lies in the single-digit micromolar range. Still for that read-out and setting: then `Cc1ccc(S(=O)(=O)NC(=O)Nc2ccc3c(/C=C/c4ccc5ccc(Cl)cc5n4)cccc3c2)cc1`, with 8.3 µM; and `CS(=O)(=O)Nc1ccc2c(/C=C/c3ccc4cc(Cl)ccc4n3)cccc2c1`, with > 50 µM; and `Nc1ccc2c(/C=C/c3ccc4ccc(Cl)cc4n3)cccc2c1`, with > 50 µM. Still for that read-out and setting: to `O=C(O)c1ccc(C(=O)Nc2ccc3c(COc4cccc(Cl)c4)cccc3c2)cc1` belongs 15.3 µM.

For `O=C(O)c1ccc(CNc2ccc3c(COc4ccccc4)cccc3c2)cc1`, the values for the Activity in assay [2] and in assay [3] were > 50 µM and > 80 µM, respectively. This molecule displayed an IC50 in assay [1] of 4.8 µM. Taken in the same sequence, the figures for `O=C(O)c1ccc(C(=O)Nc2ccc3c(OCc4cccc(C(F)(F)F)c4)cccc3c2)cc1` were > 50 µM, > 80 µM and 7.4 µM.

`O=C(O)c1ccc(C(=O)Nc2ccc3c(COc4cccc(C(F)(F)F)c4)cccc3c2)cc1` showed an IC50 in assay [1] of 15.2 µM. For the molecule `O=C(O)c1ccc(C(=O)Nc2ccc3c(OCc4cccc(Br)c4)cccc3c2)cc1`, the figures for the Activity in assay [2] and in assay [3] were > 50 µM and > 80 µM, respectively. In assay [1], this molecule had an IC50 of 6.1 µM. Taken in the same sequence, the figures for `O=C(O)c1ccc(CNc2ccc3c(COc4cccc(Cl)c4)cccc3c2)cc1` were > 50 µM, > 80 µM and 3.1 µM. Turning to `O=S(=O)(Nc1ccc2c(/C=C/c3cccc(C(F)(F)F)c3)cccc2c1)C(F)(F)F`, the results for the IC50 in assay [4] and in assay [1] were > 50 µM and 6.5 µM, respectively.

In assay [1], `O=C(O)c1ccc(CNc2ccc3c(/C=C/c4cccc(C(F)(F)F)c4)cccc3c2)cc1` showed an IC50 of 6.9 µM. The same measure, in the same setting: to `O=C(O)c1ccc(C(=O)Nc2ccc3c(/C=C/c4ccc5ccc(Cl)cc5n4)cccc3c2)cc1` belongs 17.4 µM. For `O=S(=O)(Nc1ccc2c(/C=C/c3ccc4ccccc4n3)cccc2c1)C(F)(F)F`, the IC50 in assay [4] was > 50 µM; in assay [1], 9.5 µM.

With `CN(c1ccc2c(/C=C/c3ccc4cc(Cl)ccc4n3)cccc2c1)S(=O)(=O)C(F)(F)F`, the IC50 in assay [1] is > 50 µM. Take `O=S(=O)(Nc1ccc2c(/C=C/c3ccc4ccccc4c3)cccc2c1)C(F)(F)F`: the IC50 in assay [4] was > 50 µM; in assay [1] it was 15 µM.

As for `O=S(=O)(Nc1ccc2c(/C=C/c3ccccn3)cccc2c1)C(F)(F)F`, the Activity in assay [2] is > 160 µM. Besides, the IC50 was > 50 µM in assay [4] and 66 µM in assay [1]. On to `O=C(O)c1ccc(C(=O)Nc2ccc3c(OCc4cccc(Cl)c4)cccc3c2)cc1`, for which the values for the Activity in assay [2] and in assay [3] were > 50 µM and > 80 µM, respectively. The IC50 in assay [1] was found to be 5.1 µM. As to `O=S(=O)(Nc1ccc2c(/C=C/c3ccc4ccc(Cl)cc4n3)cccc2c1)C(F)(F)F`, the IC50 in assay [4] is > 50 µM; in assay [1], 15.1 µM. Taken in the same sequence, the figures for `Cc1ccc2nc(/C=C/c3cccc4cc(NS(=O)(=O)C(F)(F)F)ccc34)ccc2c1` were > 50 µM and 6.3 µM. Turning to `O=S(=O)(Nc1ccc2c(/C=C/c3ccc4cccc(Cl)c4n3)cccc2c1)C(F)(F)F`, the IC50 was > 50 µM in assay [4] and 3.2 µM in assay [1]. On the same counts, the results for `O=S(=O)(Nc1ccc2c(/C=C/c3ccccc3)cccc2c1)C(F)(F)F` are > 50 µM and 7.5 µM. In the case of `O=C(O)c1ccc(C(=O)Nc2ccc3c(COc4ccc(Br)cc4)cccc3c2)cc1`, half-maximal inhibition in assay [1] (IC50) was put at 21.3 µM. Take `O=C(O)c1ccc2c(/C=C/c3ccc4ccccc4n3)cccc2c1`: the IC50 in assay [1] is > 50 µM.

For the molecule `O=S(=O)(Nc1ccc2c(/C=C/c3ccc4cc(Cl)ccc4n3)cccc2c1)C(F)(F)F`, the IC50 in assay [4] is > 50 µM; in assay [1], 3.2 µM. For the molecule `O=C(Nc1ccc2c(/C=C/c3ccc4cc(Cl)ccc4n3)cccc2c1)Oc1ccccc1`, the IC50 in assay [1] was > 50 µM. For the molecule `COc1cccc(/C=C/c2cccc3cc(NS(=O)(=O)C(F)(F)F)ccc23)c1`, the IC50 was > 50 µM in assay [4] and 6.6 µM in assay [1]. Taken in the same sequence, the figures for `COc1ccc2nc(/C=C/c3cccc4cc(NS(=O)(=O)C(F)(F)F)ccc34)ccc2c1` were > 50 µM and 3.4 µM. In assay [1], `O=C(Nc1ccc2c(/C=C/c3ccc4ccc(Cl)cc4n3)cccc2c1)NS(=O)(=O)c1ccc(Cl)cc1` returned an IC50 of 4.7 µM. Consider `O=S(=O)(Nc1ccc2c(/C=C/c3cc(Cl)c4ccccc4n3)cccc2c1)C(F)(F)F`, for which the IC50 was > 50 µM in assay [4] and 10.5 µM in assay [1]. On to `O=S(=O)(Nc1ccc2c(/C=C/c3ccc(Cl)cc3)cccc2c1)C(F)(F)F`, for which the IC50 in assay [4] was > 50 µM; in assay [1], 4.3 µM. `O=C(Nc1ccc2c(/C=C/c3ccc4ccc(Cl)cc4n3)cccc2c1)c1ccccc1`: the IC50 in assay [1] is > 50 µM. The molecule `O=C(Nc1ccc2c(/C=C/c3ccc4ccc(Cl)cc4n3)cccc2c1)NS(=O)(=O)c1ccccc1` showed an IC50 in assay [1] of 6.7 µM. With `CN(C)c1ccc2nc(/C=C/c3cccc4cc(NS(=O)(=O)C(F)(F)F)ccc34)ccc2c1`, the IC50 was > 50 µM in assay [4] and 3.7 µM in assay [1].

`O=C(O)c1ccc(C(=O)Nc2ccc3c(/C=C/c4cccc(C(F)(F)F)c4)cccc3c2)cc1` yielded an IC50 in assay [1] of 6.9 µM.
